Laboratory results as given in patent publication US20100004171A1, “Therapeutic Methods for Neuropathic Pain” (priority 2006, published 2010).

Legend:
[1] = system: cultured human hepatocytes; conditions: 100 μM; cited from earlier work
[2] = system: thermal hyperalgesia in allodynic rats; assay: Thermal hyperalgesia test (paw withdrawal latency) in CCI (Bennett) rats; assay type: in vivo, rat
[3] = system: tactile allodynia in allodynic rats; assay: Tactile allodynia test (von Frey filaments, paw withdrawal threshold) in CCI (Bennett model) rats; assay type: in vivo, rat
From the text: Bennett Model: In this model, approximately 0.8 cm of the left sciatic nerve was exposed and freed with sharpened scissors at middle-thigh level as described by Bennett and Xie.^[76] Four ligatures were placed loosely around the sciatic nerve with 4-0 chromic catgut, with 1 mm space between the ties, which compresses the nerve but epineural blood circulation is preserved. The tissue and skin were closed in layers. […] Most allodynia was seen during the time period of 7-14 days after the surgery.
Intrathecal catheter installation: A PE10 catheter, stretched to a somewhat thinner diameter in the distal part, was introduced into the spinal canal (subarachnoid space) via a 21 G (gauge) cannula between the L5 and L6 lamina and advanced to the lumbar enlargement in rats. The proximal part was tunneled under the skin and led out on the upper dorsal region. The location of the catheter was verified by the injection of 6 μl (50 mg/ml) xylocalne, such that a transient, flaccid paralysis of the legs was produced, and by X-ray after administration of 10 μl iodine contrast medium (Astra, Sweden). The catheter could be kept for up to two weeks in animals.^[79]
(§1) The maximum volume injected at any one time was 10 μl.^[79]
Tactile allodynia test: In a transparent glass chamber (20×20 cm) with a mesh net floor, each animal was subjected to the tactile allodynia test. A positive response is when an innocuous tactile stimulus induces a brief paw withdrawal away from the stimulation, similar to a paw withdrawal due to heat. A set of von Frey filaments from 0.01 to 28 g (Stoelting Co., Wood Dale, Ill.) were applied to the mid-paw of the allodynic rats at 1 gram, and then progressing up or down. The filament was pressed against the plantar surface for 1 to 2 seconds until it bent. Subsequent applications were made with a higher or lower von Frey filament depending on the animal response. The testing always began with normal paws. If a filament induced a brief paw withdrawal of a paw without bending in three out of five tests, the size of the filament was recorded as eliciting a positive withdrawal threshold.^[80] Allodynia was considered to be present when a withdrawal threshold was evoked by a filament corresponding to 8 grams or less.
In rats with tactile allodynia (a withdrawal threshold with a filament below 8 g), an intrathecal catheter (PE 10) was installed and linked to an osmotic pump (Alzet) in a 37° C. water bath. Following a bolus injection of SCP-1 (30 nmol/kg, 10 μl), agrin siRNA (100 nM) was intrathecally administered continuously by the pump at a rate of 5 μl/1 hour for 4 hr. The animals were subjected to von Frey filament test every 15 min for 4 hr to determine whether the effects of SCP-1 on allodynia suppression are blocked by agrin siRNA. A control siRNA (nFsiRNA) was applied in the same way. The behavioral data was analyzed for agrin effects. Immediately after behavioral experiments, the animals were sacrificed and subjected to protein extraction of lumbar spinal cord, followed by Western-blot analysis as described above.
A blind test was designed for intrathecal drug evaluations. Five days after CCI, rats were subjected to tactile allodynia tests with von Frey filaments. If a filament corresponding to 8 grams or less evoked a withdrawal response on the rat paw (at least 3 responses out of 5 stimuli), the value was designated as the allodynia threshold. […] Either a drug (100 nmol in 10 μl saline) or vehicle (only 10 μl saline) was pre-warmed and intrathecally injected into the allodynic rats. Then the rats were assayed for changes in allodynic and hyperalgesic behavior, agrin gene expression, and agrin protein changes. In addition, distribution and amount of agrin in the dorsal horn were visualized using immunostaining of L5 as reported above in Example 7.

[4] = system: Bennett model rats with hyperalgesia and allodynia; conditions: intrathecally, 30 nmol/kg; cited from earlier work
rodents = conditions: orally to rodents, 3.7 mmol/kg to 36 mmol/kg; cited from earlier work
nociceptive pain = conditions: cited from earlier work
[5] = Solubility for intrathecal injection; assay type: physicochemical
Procedure: as §1

SMILES: O=C(CN1C(=O)c2ccccc2S1(=O)=O)Nc1ccc(O)cc1 [SCP-1]
- apoptosis [1]: did not induce apoptosis
- increase in paw-withdrawal latency (thermal hyperalgesia) ([2]; intrathecal 100 nmol in 10 μl, CCI (Bennett) rat model): 80%
- effect on paw-withdrawal latency at 120 min post injection ([2]; intrathecal 100 nmol, 120 min): still apparent
- time to normalized withdrawal threshold ([3]; Example 9: SCP-1 alone): about one hour after injection
- effect on withdrawal threshold ([3]; Example 9: injected 7 days after CCI, SCP-1 alone, up to 4 h): normalized the withdrawal threshold
- duration of effect on withdrawal threshold ([3]; intrathecal 100 nmol in 10 μl): up to 8 hr
- time to normal withdrawal threshold ([3]; intrathecal 100 nmol in 10 μl): about an hour after injection
- effect on paw-withdrawal threshold ([3]; intrathecal 100 nmol in 10 μl in allodynic rats, day 7 after injury, up to 8 hr): raised the withdrawal threshold to normal values
- effect on tactile allodynia ([3]; intrathecal 100 nmol, day 7 after injury): suppressed the tactile allodynia
- effect on allodynia and hyperalgesia [4]: depressed the signs of allodynia and hyperalgesia
- toxicity after oral dosing (rodents): the animals were still moving normally
- effect on nociceptive pain (nociceptive pain; formalin- and CFA-induced, rodent models, without any toxicity): suppressed formalin- and CFA-induced nociceptive pain
- acute liver or kidney toxicity (nociceptive pain; while relieving nociceptive pain): without acute liver or kidney toxicity
- solubility in 45% 2-hydroxypropyl-α-cyclodextrin in saline ([5]; 45% cyclodextrin in saline, 10 mM solutions prepared): can dissolve them
- solubility in water ([5]; water): do not dissolve readily in water
